Data taken from ChEMBL document CHEMBL4396875, “Hybridization of β-Adrenergic Agonists and Antagonists Confers G Protein Bias” (J Med Chem, 2019).
One block for each molecule: values may come before it.

Assays:
Assay type in all cases: cell-based
[1] = target: T1, Beta-2 adrenergic receptor (Homo sapiens, UniProt P07550); assay: Agonist activity at beta2-adrenergic receptor (unknown origin) expressed in HEK293T cells harboring GFP/Rluc2-tagged beta-arrestin2 assessed as increase in beta-arrestin2 recruitment incubated for 5 mins in presence of GSK2 and coelenterazine 400a by BRET assay
[2] = target: T1, Beta-2 adrenergic receptor; assay: Agonist activity at beta2-adrenergic receptor (unknown origin) expressed in HEK293T cells harboring Rluc2-117-GalphaS/GFP10-Ggamma/Gbeta1 assessed as activation of GalphaS incubated for 5 mins in presence of coelenterazine 400a by BRET assay
[3] = target: Beta-1 adrenergic receptor (Mus musculus, UniProt P34971); assay: Displacement of [3H]-CGP-12177 from murine beta1-adrenergic receptor expressed in HEK293T cells after 60 mins by radioligand competition binding assay
[4] = target: T1, Beta-2 adrenergic receptor; assay: Displacement of [3H]-CGP-12177 from human beta2-adrenergic receptor expressed in CHO cells after 60 mins by radioligand competition binding assay
[5] = target: T1, Beta-2 adrenergic receptor; assay: Agonist activity at beta2-adrenergic receptor (unknown origin) expressed in HEK293T cells harboring GFP/Rluc2-tagged beta-arrestin2 assessed as increase in beta-arrestin2 recruitment incubated for 5 mins in presence of GSK5 and coelenterazine 400a by BRET assay
[6] = target: T2, Beta-1 adrenergic receptor (Homo sapiens, UniProt P08588); assay: Agonist activity at beta1-adrenergic receptor (unknown origin) expressed in HEK293T cells harboring GFP/Rluc2-tagged beta-arrestin2 assessed as increase in beta-arrestin2 recruitment incubated for 5 mins in presence of GRK5 and coelenterazine 400a by BRET assay
[7] = target: T2, Beta-1 adrenergic receptor; assay: Agonist activity at beta1-adrenergic receptor (unknown origin) expressed in HEK293T cells harboring GFP/Rluc2-tagged beta-arrestin2 assessed as increase in beta-arrestin2 recruitment incubated for 5 mins in presence of coelenterazine 400a by BRET assay
[8] = target: T2, Beta-1 adrenergic receptor; assay: Agonist activity at beta1-adrenergic receptor (unknown origin) expressed in HEK293T cells harboring Rluc2-117-GalphaS/GFP10-Ggamma/Gbeta1 assessed as activation of GalphaS incubated for 5 mins in presence of coelenterazine 400a by BRET assay
[9] = target: T2, Beta-1 adrenergic receptor; assay: Agonist activity at beta1-adrenergic receptor (unknown origin) expressed in HEK293T cells harboring GFP/Rluc2-tagged beta-arrestin2 assessed as increase in beta-arrestin2 recruitment incubated for 5 mins in presence of GRK2 and coelenterazine 400a by BRET assay
[10] = target: T1, Beta-2 adrenergic receptor; assay: Agonist activity at beta2-adrenergic receptor (unknown origin) expressed in HEK293T cells harboring GFP/Rluc2-tagged beta-arrestin2 assessed as increase in beta-arrestin2 recruitment incubated for 5 mins in presence of coelenterazine 400a by BRET assay

T2 sequence (P08588 whole entry): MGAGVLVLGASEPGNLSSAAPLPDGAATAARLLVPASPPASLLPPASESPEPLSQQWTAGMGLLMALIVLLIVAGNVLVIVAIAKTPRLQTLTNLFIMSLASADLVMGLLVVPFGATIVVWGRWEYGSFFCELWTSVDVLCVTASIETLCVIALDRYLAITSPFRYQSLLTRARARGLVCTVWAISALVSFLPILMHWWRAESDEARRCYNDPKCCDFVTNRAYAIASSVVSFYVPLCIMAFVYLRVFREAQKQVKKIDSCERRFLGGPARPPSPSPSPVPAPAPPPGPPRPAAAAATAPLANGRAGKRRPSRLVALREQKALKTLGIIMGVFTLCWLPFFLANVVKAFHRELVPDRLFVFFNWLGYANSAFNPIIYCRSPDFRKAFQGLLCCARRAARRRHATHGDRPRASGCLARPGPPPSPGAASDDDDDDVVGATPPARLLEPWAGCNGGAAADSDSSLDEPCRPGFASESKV
T1 sequence (P07550 whole entry): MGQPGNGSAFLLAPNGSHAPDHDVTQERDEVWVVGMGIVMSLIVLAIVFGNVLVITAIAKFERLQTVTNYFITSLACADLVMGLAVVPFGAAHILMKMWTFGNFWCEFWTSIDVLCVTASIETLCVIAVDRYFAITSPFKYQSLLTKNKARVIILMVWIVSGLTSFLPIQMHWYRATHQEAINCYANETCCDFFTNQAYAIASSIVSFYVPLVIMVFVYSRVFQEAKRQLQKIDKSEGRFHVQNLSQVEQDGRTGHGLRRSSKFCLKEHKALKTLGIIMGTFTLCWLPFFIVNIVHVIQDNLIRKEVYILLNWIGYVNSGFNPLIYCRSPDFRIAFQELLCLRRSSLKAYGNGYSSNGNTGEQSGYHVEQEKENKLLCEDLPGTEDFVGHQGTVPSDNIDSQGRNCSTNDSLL
Chain of Beta-1 adrenergic receptor (Mus musculus, UniProt P34971) (P34971 whole entry): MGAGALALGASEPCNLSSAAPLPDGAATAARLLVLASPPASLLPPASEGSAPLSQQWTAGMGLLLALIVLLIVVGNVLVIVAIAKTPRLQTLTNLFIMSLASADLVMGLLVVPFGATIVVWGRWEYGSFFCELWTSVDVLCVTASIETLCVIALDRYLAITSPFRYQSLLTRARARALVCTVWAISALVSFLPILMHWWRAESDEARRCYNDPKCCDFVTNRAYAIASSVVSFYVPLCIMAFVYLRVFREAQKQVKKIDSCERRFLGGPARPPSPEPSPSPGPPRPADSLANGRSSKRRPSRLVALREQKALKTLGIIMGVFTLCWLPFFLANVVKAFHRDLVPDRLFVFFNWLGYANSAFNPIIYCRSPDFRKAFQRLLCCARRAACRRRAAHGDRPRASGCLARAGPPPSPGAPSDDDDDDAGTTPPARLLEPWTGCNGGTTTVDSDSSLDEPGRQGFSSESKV

Compound: COc1ccccc1OCCNC[C@H](O)c1ccc(O)c(O)c1
EC50 [1]: 158 nM
EC50 [2]: 63.1 nM
EC50 [10]: 269 nM
EC50 [5]: 100 nM
EC50 [6]: 51.3 nM
EC50 [7]: 79.4 nM
EC50 ([8]; read-out: pEC50 (converted)): 39.8 nM
EC50 [9]: 63.1 nM

Compound: COc1cc(CCNC[C@H](O)c2ccc(O)c(O)c2)ccc1OCCCc1ccccc1
EC50 [1]: 501 nM
EC50 [2]: 100 nM
EC50 [10]: 724 nM
EC50 [5]: 417 nM
EC50 [6]: 501 nM
EC50 [7]: 794 nM
EC50 ([8]; read-out: pEC50 (converted)): 2000 nM
EC50 [9]: 794 nM

Compound: COc1cc(CCNCCCOc2ccc(O)c(O)c2)ccc1OCCCc1ccccc1
Ki [3]: 1200 nM
Ki [4]: 700 nM

Compound: CC(C)NC[C@@H](O)COc1ccc(O)c(O)c1
Ki [3]: 860 nM
Ki [4]: 420 nM

Compound: COc1ccccc1OCCNC[C@@H](O)c1cccc2[nH]c3ccccc3c12
Ki [3]: 340 nM
Ki [4]: 170 nM

Compound: COc1ccccc1OCCNCCCOc1ccc(O)c(O)c1
Ki [3]: > 10000 nM
Ki [4]: 3800 nM

Compound: COc1ccccc1OCCNCCCOc1cccc2[nH]c3ccccc3c12
Ki [3]: 24 nM
Ki [4]: 5.4 nM

Compound: COc1cc(CCNC[C@H](O)COc2ccc(O)c(O)c2)ccc1OCCCc1ccccc1
EC50 [2]: 12600 nM
Ki [3]: 6.5 nM
Ki [4]: 7.2 nM
EC50 [5]: 2000 nM
EC50 [6]: 7940 nM
EC50 [7]: 10000 nM
EC50 ([8]; read-out: pEC50 (converted)): 2510 nM
EC50 [9]: 2510 nM

Compound: OCc1cc(C(O)CNCCCCCCOCCCCc2ccccc2)ccc1O (racemic) [SALMETEROL]
Ki [3]: 550 nM

Results, then the molecule that gave them:

EC50 [1]: 316 nM
EC50 [2]: 794 nM
Ki [3]: 14 nM
Ki [4]: 12 nM
EC50 [5]: 251 nM
EC50 [6]: 316 nM
EC50 [7]: 631 nM
EC50 ([8]; read-out: pEC50 (converted)): 631 nM
EC50 [9]: 1000 nM
Compound: CC(C)NC[C@H](O)COc1ccc(O)c(O)c1

EC50 [1]: 794 nM
EC50 [2]: 12600 nM
Ki [3]: 12 nM
Ki [4]: 21 nM
EC50 [5]: 631 nM
EC50 [6]: 398 nM
EC50 [7]: 316 nM
EC50 ([8]; read-out: EC50): 300 to 800 nM
EC50 ([8]; read-out: pEC50 (converted)): 794 nM
EC50 [9]: 398 nM
Compound: COc1ccccc1OCCNC[C@H](O)COc1ccc(O)c(O)c1

Ki [3]: 330 nM
Ki [4]: 26 nM
Compound: COc1ccccc1OCCNCCc1cccc2[nH]c3ccccc3c12

Ki [3]: 6.6 nM
Ki [4]: 3.3 nM
Compound: COc1ccccc1OCCNC[C@H](O)c1cccc2[nH]c3ccccc3c12

Ki [3]: 2400 nM
Ki [4]: 740 nM
Compound: COc1ccccc1OCCNC[C@@H](O)Cc1ccc(O)c(O)c1

Ki [3]: 310 nM
Ki [4]: 120 nM
Compound: COc1cc(CCNC[C@@H](O)COc2ccc(O)c(O)c2)ccc1OCCCc1ccccc1

Ki [3]: 7400 nM
Ki [4]: 7900 nM
Compound: COc1ccccc1OCCNC[C@@H](O)COc1ccc(O)c(O)c1

Ki [3]: > 10000 nM
Ki [4]: 5200 nM
Compound: COc1ccccc1OCCNC[C@H](O)Cc1ccc(O)c(O)c1

Ki [3]: > 10000 nM
Ki [4]: 920 nM
Compound: COc1ccccc1OCCNCCCc1ccc(O)c(O)c1

Ki [3]: > 10000 nM
Ki [4]: 6900 nM
Compound: CC(C)NCCCOc1ccc(O)c(O)c1
